Reference: patent US12516038B2, “Inhibitors of antigen presentation by HLA-DR” (Janssen Pharmaceutica NV, priority 2020, dated 2026)

Tests used:
HLA-DRB1*0401 = HLA-DRB1*0401 (Homo sapiens (Human), UniProt P01903+P01911, A100K/A169T/DEL228-266/F76Y/I96L/K127E/L162R/M171V/N62H/P40V/Q125Y/R42H/S133A/S149N/S66Y/V115G/V209L/W38E); experiment: HLA-DR4 HTRF assay; type: binding; details: inhibition of loading of Alexa Fluor 647-labeled Cit-CII peptide onto HLA-DR4 (CLIP cleaved)
Text: (§1) The screening was made through two sets of HLA-DR/peptide-dependent assays: a peptide-dependent Homogeneous Time Resolved Fluorescence (HTRF) binding assay followed by an HLA-DR dependent, peptide-specific T cell functional assay (HLA-DR4-restricted peptide-specific T cell-based assay hybridoma assay). The HTRF binding assay was designed to measure the ability of the small molecule to inhibit the loading of a fluorescently labeled high-affinity peptide onto HLA-DR peptide binding groove. The peptide-specific T cell functional assay assesses T cell activation resulting from proper peptide presentation onto HLA-DR expressed on the surface of the antigen-presenting cells to the T cell and is used to screen compounds able to inhibit such HLA-DR/peptide-dependent T cell activation.
The HLA-DR4 HTRF assay is based on HTRF technology and designed to measure ability of compounds to prevent loading of high-affinity Alexa Fluor 647-labeled Citrullinated Collagen 111236-1249 peptide (named Cit-CII/AF647, aa1236-1249, LQYM-Cit-ADQAAGGLR; Alexa Fluor 647 dye commercially available from Invitrogen) onto HLA-DRB1*0401. The HTRF assay technology is based on the energy transfer between two fluorophores, a donor and an acceptor, when in close proximity. The HLA-DR4 protein construct was uniquely designed for this assay and has (i) the α and […] subunits fused to human Fc chains and (ii) the invariant chain-associated peptide (CLIP peptide, aa85-101), the universal moderate/low-affinity HLA-DR binder, attached to the beta chain through a HRV3C protease-cleavable linker.
Because of the low stability of peptide free HLA-DR4 heterodimer, the construct was purified and delivered with CLIP peptide attached to the N-terminal of the β chain. The HLA-DR4 heterodimer was pre-treated with 3 μL HRV3C protease (Novagen E71493-3) (˜2 U/μL) per mg of the cleavable protein to cleave CLIP peptide and incubated overnight (>16 hrs) at 4° C. This method yielded at least 80% cleavage and allowed the CLIP peptide to be potentially exchanged with the fluorescently labeled high affinity cit-CII1236-1249 peptide. A batch of […] protein with CLIP cleaved was prepared for multiple experiments and was stable for several months when stored at 4° C.
In this assay, anti-human Fc antibody labeled with Tb-Cryptate probe was used as the donor (commercially available from Cisbio—PAb Anti-human IgG-Tb Cryptate, Cat #61HFCTAB) and high affinity peptide Citrullinated CII (cit-CII) labeled with Alexa 647 fluorophore was utilized as the acceptor. Inhibitors of the exchange of the pre-cleaved CLIP peptide for the high affinity cit-CII1236-1249 peptide onto HLA-DRB1*04:01 caused a decrease in HTRF signal as measured by the ratio of the 665 nm/620 nm emitted signal. Screening compounds were robotically pre-dispensed (150 nL, Hummingbird, DigiLab/CyBio AG) onto black, round bottom, nontreated, 1536-well assay plates (Corning #3939), were incubated with 3 nM HLA-DR4 (with CLIP cleaved) plus 1 nM Human IgG-Tb (anti-Fc-Tb) Antibody for 45 min prior to addition of 40 nM Cit-CII peptide labeled with Alexa-647. The negative control was DMSO plus 1 nM Human IgG-Tb (anti-Fc-Tb) Antibody, incubated for 45 minutes before addition of 40 nM Cit-CII peptide labeled with Alexa-647. The positive control was DMSO plus 3 nM HLA-DR4 (with CLIP cleaved) plus 1 nM Human IgG-Tb (anti-Fc-Tb) Antibody with 40 nM Cit-CII peptide labeled with Alexa-647 added after a 45-minute incubation. Plates were centrifuged at 1000 rpm for 1 minute and then incubated at 37° C., at 90% relative humidity for 90 minutes. After incubation, plates were read on a spectrophotometer, the Pherastar FS (BMG Labtech), in HTRF mode. The HTRF ratio as well as percent inhibition was calculated. Curve fitting and IC50 calculation for dose response data was performed by Microsoft Excel, 3DX (Janssen proprietary software) or Graphpad Prism (Graphpad Software, San Diego, CA). […]

[1] = tested on: HLA-DR4 restricted mouse T cell hybridoma line (DR4.CII.36.8) with HLA-DRB1*04:01-expressing Boleth cells; experiment: HLA-DR4-restricted peptide-specific T cell-based assay (hybridoma assay); details: 6 h, inhibition of IL-2 production, CII259-273 peptide presented by Boleth cells
Text: as §1
HLA-DR4-Restricted Peptide-Specific T Cell-Based Assay (Hybridoma Assay)
The hybridoma assay was used to measure compound inhibition of TL-2 production from an HLA-DR4 restricted mouse T cell hybridoma line (DR4.CII.36.8) that was antigen-specific for collagen II259-273 (CII259-273) peptide when presented with an HLA-DR4 expressing Antigen Presenting Cell (APC) cell line (i.e., Boleth).
To the HLA-DRB1*04:01-expressing B cell line (Boleth cell line from International Histocompatibility Working Group (IHWG), ref #IHW09031) was presented the collagen II 259-273 peptide (CII259-273, GIAGFKGEQGPKGEP) to mouse T cell hybridoma (DR4.CII.36.8 T cell hybridoma; clone 36.8, expressing a CII259-273-specific, HLA-DRB1*04:01-restricted T cell receptor). Upon proper CII259-273 peptide presentation, the T cell hybridoma was activated and thus produced IL-2 cytokine, whose level in the cell culture supernatant was detected using mouse IL-2 AlphaLISA kit (Perkin Elmer, Cat: AL511F).
This assay was performed in a 384-well plate (polypropylene V-bottom Greiner bio-one, ref #784075) by: (i) pre-incubation of 20 μL of 1.25 million/mL Boleth cells (25,000 cells) resuspended in DMEM/1% fetal calf serum (FCS; Gibco, ref #16140-071) with 20 μL of 2.5× final concentration of compound of interest in DMEM/1% serum/0.75% DMSO at 37° C. for 1 hr in the incubator, then (ii) 10 μL of 5 million/mL (50,000 cells) DR4.CII.36.8 T cell hybridoma cells resuspended in DMEM/1% FCS was added and incubated for 6 h at 37° C. in the incubator. Supernatant was then collected and mouse IL-2 detected using AlphaLISA kit (ref #AL511F). Compounds were tested in duplicate, with 8-point titration. Mean±SD of AlphaLISA units at each compound concentration was used for compound IC50 calculation. The negative control for this experiment was run without peptide stimulation and used a DMSO vehicle wherein no compound of interest was added. The positive control was run with peptide stimulation and used a DMSO vehicle wherein no compound of interest was added. Both the negative and positive controls were run in 8 replicates each. Curve fitting and IC50 calculation for dose response data was performed by GraphPad software 6 or higher (GraphPad Software, San Diego, CA). Dose response data was plotted versus the log of compound concentration and IC50 was determined using 4-parameter logistic (4-PL) curve fitting.

| Compound | IC50 (HLA-DRB1*0401) [µM] | IC50 ([1]; Mus musculus, T-cell) [µM] | IC50 [1] [µM] |
| --- | --- | --- | --- |
| CC[C@@H]1CC(=O)c2ccc(O[C@H](c3ccncc3)c3ccc(C(N)=O)cc3)cc2O1 (single isomer, unassigned) [Example 41a, 4-((*S)—(((*R)-2-ethyl-4-oxochroman-7-yl)oxy)(pyridin-4-yl)methyl)benzamide] | 1.2 | > 15 |  |
| C[C@H]1COc2cc(O[C@@H](c3ccncc3)c3ccc(C(N)=O)cc3)ccc2C1=O (single isomer, unassigned) [Example 44c, 4-((*R)—(((*S)-3-Methyl-4-oxochroman-7-yl)oxy)(pyridin-4-yl)methyl)benzamide] | 1.3 | > 15 |  |
| C[C@H]1COc2cc(O[C@H](c3ccncc3)c3ccc(C(N)=O)cc3)ccc2C1=O (single isomer, unassigned) [Example 44d, 4-((*S)—(((*S)-3-Methyl-4-oxochroman-7-yl)oxy)(pyridin-4-yl)methyl)benzamide] | 0.85 | > 15 |  |
| NC(=O)c1ccc([C@H](Oc2cc(F)c3c(c2)OCCC3=O)c2ccncc2)cc1 (single isomer, unassigned) [Example 51b, (*S)-4-(((5-Fluoro-4-oxochroman-7-yl)oxy)(pyridin-4-yl)methyl)benzamide] | 3.5 | 15 |  |
| NC(=O)c1ccc([C@H](Oc2cc3c(cc2F)C(=O)CCO3)c2ccncc2)cc1 (single isomer, unassigned) [Example 52b, (*S)-4-(((6-Fluoro-4-oxochroman-7-yl)oxy)(pyridin-4-yl)methyl)benzamide] | 0.3 | 8.5 |  |
| Cc1c(O[C@H](c2ccc(Cl)cc2)c2ccc(C(N)=O)cc2)ccc2c1OCCC2=O (single isomer, unassigned) [Example 57b, (*S)-4-((4-chlorophenyl)((8-methyl-4-oxochroman-7-yl)oxy)methyl)benzamide] | 2 | > 15 |  |
| Cc1c(O[C@@H](c2ccc(C#N)cc2)c2ccc(C(N)=O)cc2)ccc2c1OCCC2=O (single isomer, unassigned) [Example 59b, (*S)-4-((4-cyanophenyl)((8-methyl-4-oxochroman-7-yl)oxy)methyl)benzamide] | 1.3 | > 15 |  |
| Cc1c(O[C@H](c2ccc(Cl)cc2)c2ccc(C(N)=O)cn2)ccc2c1OCCC2=O (single isomer, unassigned) [Example 63a, (*R)-6-((4-chlorophenyl)((8-methyl-4-oxochroman-7-yl)oxy)methyl)nicotinamide] | 1.6 | > 15 |  |
| Cc1c(O[C@H](c2ccc(C(N)=O)cc2)c2cccc[n+]2[O-])ccc2c1OCCC2=O (single isomer, unassigned) [Example 65a, (*R)-2-((4-carbamoylphenyl)((8-methyl-4-oxochroman-7-yl)oxy)methyl)pyridine 1-oxide] | 30 |  | > 15 |
| Cc1c(O[C@H](c2ccc(F)cc2)c2ccc(C(N)=O)cc2)ccc2c1OCCC2=O (single isomer, unassigned) [Example 66b, (*S)-4-((4-Fluorophenyl)((8-methyl-4-oxochroman-7-yl)oxy)methyl)benzamide] | 2.4 | > 15 |  |
| Cc1c(O[C@@H](c2ccc(C(N)=O)cc2)c2cccc(F)c2)ccc2c1OCCC2=O (single isomer, unassigned) [Example 67b, (*S)-4-((3-Fluorophenyl)((8-methyl-4-oxochroman-7-yl)oxy)methyl)benzamide] | 2.2 | > 15 |  |
| Cc1c(O[C@@H](c2ccc(C(N)=O)cc2)c2ccccc2F)ccc2c1OCCC2=O (single isomer, unassigned) [Example 68b, (*S)-4-((2-Fluorophenyl)((8-methyl-4-oxochroman-7-yl)oxy)methyl)benzamide] | 5.4 | > 15 |  |
| Cc1c(O[C@@H](c2ccccc2)c2ccc(C(N)=O)cc2)ccc2c1OCCC2=O (single isomer, unassigned) [Example 69b, (*S)-4-(((8-Methyl-4-oxochroman-7-yl)oxy)(phenyl)methyl)benzamide] | 2.1 | > 15 |  |
| Cc1c(O[C@@H](c2ccncc2)c2cccc(CNC(N)=O)c2)ccc2c1OCCC2=O (single isomer, unassigned) [Example 81a, (*R)-1-(3-(((8-methyl-4-oxochroman-7-yl)oxy)(pyridin-4-yl)methyl)benzyl)urea] | 0.69 | 15 |  |
| COc1cc(C(N)=O)ccc1[C@H](Oc1ccc2c(c1C)OCCC2=O)c1ccncc1 (single isomer, unassigned) [Example 82a, (*R)-3-Methoxy-4-(((8-methyl-4-oxochroman-7-yl)oxy)(pyridin-4-yl)methyl)benzamide] | 0.71 | > 15 |  |
| COc1cc(C(N)=O)ccc1[C@@H](Oc1ccc2c(c1C)OCCC2=O)c1ccncc1 (single isomer, unassigned) [Example 82b, (*S)-3-Methoxy-4-(((8-methyl-4-oxochroman-7-yl)oxy)(pyridin-4-yl)methyl)benzamide] | 0.62 | 5.7 |  |
| CCOc1cc(C(N)=O)ccc1[C@@H](Oc1ccc2c(c1C)OCCC2=O)c1ccncc1 (single isomer, unassigned) [Example 83b, (*S)-3-ethoxy-4-(((8-methyl-4-oxochroman-7-yl)oxy)(pyridin-4-yl)methyl)benzamide] | 0.69 | 5 |  |
